The source of these data is ChEMBL document CHEMBL1127643, “Mechanism-based design, synthesis, and in vitro antimalarial testing of new 4-methylated trioxanes structurally related to artemisinin: the importance of a carbon-centered radical for antimalarial activity” (J Med Chem, 1994).

Molecules are shown by their SMILES. In brackets after ≈: the same amount, converted by molar mass. Bounds are passed on as bounds.

Assay [1] concerns Plasmodium falciparum. The assay is described as follows: In vitro antimalarial activity against Plasmodium falciparum D6 Africa. Type of assay: functional, organism-based.
For assay [2], the system named is Plasmodium falciparum. The assay is described as follows: In vitro antimalarial activity against Plasmodium falciparum W-2 Indochina. It counts as functional, organism-based.

Broadly, the IC50 is the concentration needed to halve the response being measured. As to `CO[C@H]1O[C@]2(C)OO[C@]13[C@H](CCO)CCC[C@@H]3CC2(C)C`, the IC50 in the assay on Plasmodium falciparum [1] and in the assay on Plasmodium falciparum [2] was over 500 ng/mL each time.

With `CO[C@H]1O[C@]2(C)OO[C@]13[C@H](CCO)CCC[C@@H]3C[C@H]2C`, the IC50 in the assay on Plasmodium falciparum [1] and with Plasmodium falciparum [2] was over 500 ng/mL each time.

Take `CO[C@H]1O[C@]2(C)OO[C@]13[C@H](CCOCc1ccccc1)CCC[C@@H]3CC2(C)C`: the IC50 with Plasmodium falciparum [1] and in the assay with Plasmodium falciparum [2] was over 500 ng/mL each time.

As to `CO[C@H]1O[C@]2(C)OO[C@]13[C@H](CCO)CCC[C@@H]3C[C@@H]2C`, the 50% inhibitory concentration (IC50) is 3.5 ng/mL (≈ 0.0122 µM) in the assay on Plasmodium falciparum [1] and 4.5 ng/mL (≈ 0.0157 µM) in the assay on Plasmodium falciparum [2].

Regarding `C[C@@H]1CC[C@H]2[C@@H](C)C(=O)O[C@@H]3O[C@@]4(C)CC[C@@H]1[C@]32OO4` [ARTEMISININ], the IC50 in the assay on Plasmodium falciparum [1] and in the assay on Plasmodium falciparum [2] was 8 ng/mL (≈ 0.0283 µM) throughout.
